According to patent publication US8710243B2, “Estrogen receptor ligands” (Karo Bio AB, priority 2009, dated 2014):

Each compound was assayed against T1, human estrogen receptor beta (Homo sapiens, UniProt Q92731) (assay: Transactivation Assay 2 in human embryonic kidney 293 cells stably transfected with pERE2-ALP and human estrogen receptor beta). Details: read-out: potency at the estrogen receptor β-subtype, EC50.
T1 construct: expressed in transfected cells; host or cells: HEK293 (CRL-1573)
T1 sequence (Q92731 whole entry): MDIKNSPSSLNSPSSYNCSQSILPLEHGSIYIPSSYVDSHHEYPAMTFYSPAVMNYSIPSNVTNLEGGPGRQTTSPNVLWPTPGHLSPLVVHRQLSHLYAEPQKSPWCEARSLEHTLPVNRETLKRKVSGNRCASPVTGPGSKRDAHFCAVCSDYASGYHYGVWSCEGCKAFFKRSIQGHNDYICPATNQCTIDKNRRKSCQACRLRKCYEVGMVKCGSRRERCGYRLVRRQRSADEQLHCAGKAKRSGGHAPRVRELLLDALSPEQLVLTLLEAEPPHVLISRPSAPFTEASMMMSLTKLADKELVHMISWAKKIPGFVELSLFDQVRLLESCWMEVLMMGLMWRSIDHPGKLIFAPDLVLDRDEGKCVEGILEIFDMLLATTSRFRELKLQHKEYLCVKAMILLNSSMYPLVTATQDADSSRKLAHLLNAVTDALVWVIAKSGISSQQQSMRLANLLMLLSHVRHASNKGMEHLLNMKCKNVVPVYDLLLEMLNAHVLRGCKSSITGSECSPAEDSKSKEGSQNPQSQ
Format: cell-based
Experimental: Transactivation Assay 2: Transactivation Assay in Human Embryonic Kidney 293 Cells Stably Transfected with pERE2-ALP and Human Estrogen Receptor Beta
Generation of stable HEK293 cell lines (CRL-1573; American Type Culture Collection) expressing the reporter vector pERE2-ALP and human estrogen receptor beta (hERβ 530) have been described (Mol Pharmacol 1998, 54, 105-112; Endocrinology 2002, 143, 1558-1561).
The cells were seeded in 384-well plates at 12 500 cells per well in Ham's F12 Coon's modification (without phenol red) with 10% dextran-coated charcoal treated (DCC) fetal bovine serum (FBS), 2 mM L-glutamine and 50 μg/ml gentamicin. After 24 h incubation (37° C., 5% CO2) the seeding medium was discarded and replaced with 20 μl Ham's F12 Coon's modification (without phenol red) with 1.5% DCC-FCS, 2 mM L-glutamine and supplemented with 100 U/ml penicillin and 100 μg/ml streptomycin. The selected compounds were added to the wells in 12 concentrations ranging from […] to 33 μM. The compounds were dissolved in 100% dimethylsulfoxide (DMSO) and the final concentration of DMSO in the assay was 0.1%. After 72 h incubation (37° C., 5% CO2) the medium was assayed for ALP activity by a chemiluminescence assay; a 10 μl aliquot of the conditioned medium was mixed with 100 μl assay buffer (0.1 M diethanolamine, 1 mM MgC12) and 0.5 mM disodium 3-(4-methoxyspiro 1,2-dioxetane-3,2′-(5′-chloro)-tricyclo[3.3.1.13,7]decan-4-yl)phenyl phosphate (CSPD) (Tropix, Applied Biosystems) and incubated for 20 min at 37° C. and 15 min at room temperature before measurement of the chemiluminescent signal (one second per well) in a Wallac Microbeta Trilux 1450-028 (PerkinElmer). The ALP activity expressed in LCPS is directly proportional to the level of ALP expressed by the cells. The half maximal effective concentrations of the test compounds (EC50) were calculated from the curves fitted to the concentration-response data with a four parameter logistic model in XLfit software version 2.0 (IDBS) or later.
With `Cc1csc(C)c1-c1c(-c2ccc(O)cc2)c2cc(Cl)ccc2n1C(N)=NO` [Example 21, 5-chloro-2-(2,4-dimethylthiophen-3-yl)-N′-hydroxy-3-(4-hydroxyphenyl)-1H-indole-1-carboximidamide] the EC50 was 0.1 to 10 nM. For `Cc1nsc(C)c1-c1c(-c2ccc(O)cc2)c2ccccc2n1C(N)=NO` [Example 24, 2-(3,5-dimethylisothiazol-4-yl)-N′-hydroxy-3-(4-hydroxyphenyl)-1H-indole-1-carboximidamide], the EC50 was 0.1 to 10 nM. `Cc1noc(C)c1-c1c(-c2ccc(O)cc2)c2ccccc2n1C=NO` [Example 5, 2-(3,5-dimethylisoxazol-4-yl)-3-(4-hydroxyphenyl)-1H-indole-1-carbaldehyde oxime] was tested, and the EC50 was 0.1 to 10 nM. `Cc1noc(C)c1-c1c(-c2ccc(O)cc2)c2cc(Cl)ccc2n1C(N)=NO` [Example 22, 5-chloro-2-(3,5-dimethylisoxazol-4-yl)-N′-hydroxy-3-(4-hydroxyphenyl)-1H-indole-1-carboximidamide] gave an EC50 of 0.1 to 10 nM. In the case of `CCNC(=O)n1c(-c2c(C)noc2C)c(-c2ccc(O)cc2)c2ccccc21` [Example 8, 2-(3,5-dimethylisoxazol-4-yl)-N-ethyl-3-(4-hydroxyphenyl)-1H-indole-1-carboxamide], the EC50 is reported as 0.1 to 10 nM. For `Cc1cccc(C)c1-c1c(-c2ccc(O)cc2)c2ccccc2n1C(N)=NO` [Example 12, 2-(2,6-dimethylphenyl)-N′-hydroxy-3-(4-hydroxyphenyl)-1H-indole-1-carboximidamide], the EC50 was 0.1 to 10 nM. `Cc1noc(C)c1-c1c(-c2ccc(O)cc2F)c2ccccc2n1C(N)=NO` [Example 18, 2-(3,5-dimethylisoxazol-4-yl)-3-(2-fluoro-4-hydroxyphenyl)-N′-hydroxy-1H-indole-1-carboximidamide] gave an EC50 of 0.1 to 10 nM. With `Cc1csc(C)c1-c1c(-c2ccc(O)cc2)c2ccccc2n1C(N)=NO` [Example 10, 2-(2,4-dimethylthiophen-3-yl)-N′-hydroxy-3-(4-hydroxyphenyl)-1H-indole-1-carboximidamide] the EC50 was 0.1 to 10 nM. For `Cc1noc(C)c1-c1c(-c2cc(F)c(O)c(F)c2)c2ccccc2n1C(N)=NO` [Example 16, 3-(3,5-difluoro-4-hydroxyphenyl)-2-(3,5-dimethylisoxazol-4-yl)-N′-hydroxy-1H-indole-1-carboximidamide], the EC50 was 0.1 to 10 nM. Work on `Cc1noc(C)c1-c1c(-c2ccc(O)cc2)c2ccccc2n1C(N)=O` [Example 3, 2-(3,5-dimethylisoxazol-4-yl)-3-(4-hydroxyphenyl)-1H-indole-1-carboxamide] yielded an EC50 of 0.1 to 10 nM. `Cc1noc(C)c1-c1c(-c2ccc(O)c(F)c2)c2ccccc2n1C(N)=NO` [Example 20, 2-(3,5-dimethylisoxazol-4-yl)-3-(3-fluoro-4-hydroxyphenyl)-N′-hydroxy-1H-indole-1-carboximidamide] gave an EC50 of 0.1 to 10 nM. Compound `Cc1noc(C)c1-c1c(-c2ccc(O)cc2)c2ccccc2n1S(C)(=O)=O` [Example 6, 4-(2-(3,5-dimethylisoxazol-4-yl)-1-(methylsulfonyl)-1H-indol-3-yl)phenol] has an EC50 of 0.1 to 10 nM. `CC=C(C)c1c(-c2ccc(O)cc2)c2ccccc2n1C(N)=NO` (stereo in doubt) [Example 7, 2-((E)-but-2-en-2-yl)-N′-hydroxy-3-(4-hydroxyphenyl)-1H-indole-1-carboximidamide] was tested, and the EC50 was 0.1 to 10 nM. With `Cc1csc(C)c1-c1c(-c2ccc(O)cc2)c2ccccc2n1C(N)=O` [Example 11, 2-(2,4-dimethylthiophen-3-yl)-3-(4-hydroxyphenyl)-1H-indole-1-carboxamide] the EC50 was 0.1 to 10 nM. `Cc1coc(C)c1-c1c(-c2ccc(O)cc2)c2ccccc2n1C(N)=NO` [Example 23, 2-(2,4-dimethylfuran-3-yl)-N′-hydroxy-3-(4-hydroxyphenyl)-1H-indole-1-carboximidamide] gave an EC50 of 0.1 to 10 nM. `Cc1noc(C)c1-c1c(-c2cc(F)c(O)cc2F)c2ccccc2n1C(N)=NO` [Example 19, 3-(2,5-difluoro-4-hydroxyphenyl)-2-(3,5-dimethylisoxazol-4-yl)-N′-hydroxy-1H-indole-1-carboximidamide] was tested, and the EC50 was 0.1 to 10 nM. In the case of `Cc1noc(C)c1-c1c(-c2ccc(O)cc2)c2ccccc2n1C(N)=NO` [Example 2, 2-(3,5-dimethylisoxazol-4-yl)-N′-hydroxy-3-(4-hydroxyphenyl)-1H-indole-1-carboximidamide], the EC50 is reported as 0.1 to 10 nM.
